# Experimental data: US20220218664A1, “DRUG AND METHOD FOR TREATING OR PREVENTING COMPLICATIONS FROM DIABETES, USING SAID DRUG” (TMS Co., Ltd., priority 2019, published 2022)
# Values joined by “and” are separate entries in the source; they are usually repeats but may differ in a detail not shown here. Equal values may be shown once.
# Legend:
# Assay type in all cases: in vivo, C57BL/6J male mice
# [1] = test system: streptozotocin-induced diabetic mice; experiment: Sciatic nerve conduction velocity; details: 4th week
# Experimental: (§1) 9-week-old C57BL/6J male mice were purchased and familiarized with an animal facility for 1 week. 200 mg/kg of streptozotocin (streptozotocin; STZ) was administered […] into the peritoneal cavity of 10-week-old mice to prepare streptozotocin-induced diabetic mice (hereinafter also referred to as “STZ administration week 0”). One week after the administration of streptozotocin, blood was collected from the tail vein of the mice, and the blood glucose level (BS) was measured using an automatic blood glucose measuring device (product name: Medisafe (trademark) Mini GR-102, made by Terumo (Co)). Mice having a blood glucose level of 400 mg/dL or more were determined to be diabetic mice.
# (§2) The SMTP-44D groups, the edaravone group, and the pregabalin group were administered SMTP-44D (0.3 mg/kg, 3 mg/kg, or 30 mg/kg doses, respectively), edaravone (10 mg/kg dose), or pregabalin (10 mg/kg dose) into the peritoneal cavity once a day for 3 consecutive weeks from the day following the first week to the fourth week after STZ administration.
# (§3) Sciatic nerves of the above-mentioned STZ group, SMTP-44D groups, edaravone group, pregabalin group, and control group mice on the 4th week were exposed under isoflurane anesthesia, and then, using the full-field laser perfusion imager, their sciatic nerve blood flows (perfusion unit: PU) were measured. After the sciatic nerve blood flows were measured, a voltage was output from a PowerLab through the […] to impart an electrical stimulus to the sciatic nerves using needle electrodes. The electrical stimulus went through the Analog Stimulus Isolator via recording electrodes attached to the gastrocnemius and was input into the PowerLab, and thus neuromuscular function response curves were measured. The sciatic nerves were stimulated between two points at 8-mm intervals. The sciatic nerve conduction velocity (m/s) was calculated by dividing the […]. The sciatic nerve blood flow and sciatic nerve conduction velocity were measured using a Hot-1 small-sized heating controller and small-sized body temperature retention device (model number: […]-1), maintaining the rectal temperature at 37° C. The measurement results are described in Table 11.
# [2] = test system: streptozotocin-induced diabetic mice; experiment: Thickness and G-ratio of myelin in the sciatic nerve; details: 4th week
# Experimental: as §1, §2
# The above-mentioned STZ group, SMTP-44D (30 mg/kg) group, edaravone group, pregabalin group, and control group mice in the 4th week were dissected to remove the sciatic nerves. The sciatic nerves were fixed using neutral buffered formalin and embedded using an Epon resin, and then semi-thin segments were formed and dyed using toluidine blue. The cross sections of the sciatic nerves in the respective specimens were examined using a microscope equipped with a digital camera at 400× magnification. The thickness of myelin ((diameter of axon including myelin diameter of axon)/2) and G-ratio (diameter of axon/diameter of axon including myelin) were measured.
# [3] = test system: malondialdehyde: MDA; experiment: Oxidative stress (MDA, TBARS assay) in sciatic nerve; details: 4th week
# Experimental: as §1, §2
# The sciatic nerves of the above-mentioned STZ group, SMTP-44D group (30 mg/kg), edaravone group, pregabalin group, and control group mice in the 4th week were homogenized using an RIPA buffer containing a protease inhibitor cocktail. Moreover, centrifugation was conducted at 4° C. for 15 minutes at 1600 g, and the supernatant was collected and used for measuring MDA (μM) and total protein concentration (μg/mL), respectively. MDA was measured using a TBARS Assay Kit. The total protein concentration was measured using a Pierce (Trademark) BCA Protein Assay Kit. Oxidative stress levels (nmol/mg protein) were calculated from MDA (μM) and the total protein concentration (μg/mL).
# [4] = test system: IL-6; experiment: Inflammatory cytokine IL-6 in sciatic nerve (ELISA); details: 4th week
# Experimental: as §1, §2
# The sciatic nerves of the above-mentioned STZ group, SMTP-44D group (30 mg/kg), edaravone group, pregabalin group, and control group mice on the 4th week were homogenized using the RIPA buffer containing a protease inhibitor cocktail. Moreover, centrifugation was conducted at 4° C. for 15 minutes at 10,000 g, and the supernatant was collected and used for measuring TNF-α concentration (pg/mL), IL-1β concentration (pg/mL), IL-6 concentration (pg/mL), and total protein concentration (μg/mL), respectively. An ELISA assay kit was used for the TNF-α, IL-1β, and IL-6 concentrations. The total protein concentration was measured by using a Pierce (trademark) BCA Protein Assay Kit. The inflammatory cytokine level (pg/mg protein) in the total protein was calculated from the TNF-α concentration (pg/mL), IL-1β concentration (pg/mL), and IL-6 concentration (pg/mL), and total protein concentration (μg/mL).
# [5] = test system: streptozotocin-induced diabetic mice; experiment: Sciatic nerve blood flow; details: 4th week
# Experimental: as §1, §2, §3
# [6] = test system: streptozotocin-induced diabetic mice; experiment: Blood glucose level (BS) in streptozotocin-induced diabetic mice
# Experimental: as §1, §2
# For the above-mentioned STZ group, SMTP-44D groups, edaravone group, pregabalin group, and control group mice, the following measurements were conducted every week from the 0th week, which began on the day when streptozotocin (STZ) was administered, to the 4th week (that is, a total of five times). As algesia tests, the following von Frey test and hot plate test were conducted, and hind plantar blood flow, body weight (BW), and blood glucose level (BS) were measured using the above-mentioned automatic blood glucose measure device. Note, for example, the 0th week represents the 0th day. That is, the measurements were conducted on the 0th, 7th, 14th, 21st, and 28th days.
# [7] = 10 mg/kg i.p. once a day, listed as pregabalin
# [8] = 10 mg/kg i.p. once a day, listed as Preaabalin
# [9] = 10 mg/kg i.p. once a day, 1st week (before dosing)
# [10] = 10 mg/kg i.p. once a day, 2nd week
# [11] = 10 mg/kg i.p. once a day, 4th week
# [12] = 10 mg/kg i.p. once a day, listed as edaravone
smiles,measurement,setting,value
"CC(C)C[C@H](CN)CC(=O)O [Pregabalin, pregabalin]",Sciatic nerve conduction velocity,[1]; 10 mg/kg i.p. once a day,55.9 ± 1.4 m/s
same,Sciatic nerve conduction velocity,[1]; [7],55.9±1.4 m/s
same,G-ratio,[2]; [8],0.665 ± 0.006
same,Thickness of myelin,[2]; [8],1.29 ± 0.03 μm
same,G-ratio,[2]; [7],0.665±0.006
same,Thickness of myelin,[2]; [7],1.29±0.03 μm
same,MDA (oxidative stress),[3]; 10 mg/kg i.p. once a day,4.02 ± 0.59 nmol/mg protein
same,MDA (oxidative stress),[3]; [7],4.02±0.59 nmol/mg protein
same,IL-6,[4]; 10 mg/kg i.p. once a day,166.60 ± 13.57 pg/mg protein
same,IL-6,[4]; [7],166.60±13.57 pg/mg protein
same,Sciatic nerve blood flow,[5]; 10 mg/kg i.p. once a day,1114.1 ± 27.5 PU
same,Sciatic nerve blood flow,[5]; [7],1114.1±27.5 PU
same,BS (blood glucose level),"[6]; 10 mg/kg i.p. once a day, 0th week (before dosing)",192.2 ± 5.3 mg/dL
same,BS (blood glucose level),"[6]; 10 mg/kg i.p. once a day, 0th week (before dosing), listed as pregabalin",192.2 ± 5.3 mg/dL
same,BS (blood glucose level),[6]; [9],562.7 ± 25.6 mg/dL
same,BS (blood glucose level),"[6]; 10 mg/kg i.p. once a day, 1st week (before dosing), listed as pregabalin",562.7 ± 25.6 mg/dL
same,BS (blood glucose level),[6]; [10],639.1 ± 44.7 mg/dL
same,BS (blood glucose level),"[6]; 10 mg/kg i.p. once a day, 2nd week, listed as pregabalin",639.1 ± 44.7 mg/dL
same,BS (blood glucose level),"[6]; 10 mg/kg i.p. once a day, 3rd week, listed as pregabalin",657.2 ± 38.7 mg/dL
same,BS (blood glucose level),[6]; [11],582.3 ± 38.2 mg/dL
same,BS (blood glucose level),"[6]; 10 mg/kg i.p. once a day, 4th week, listed as pregabalin",582.3 ± 38.2 mg/dL
"CC1=NN(c2ccccc2)C(=O)C1 [Edaravone, edaravone]",Sciatic nerve conduction velocity,[1]; 10 mg/kg i.p. once a day,63.6 ± 1.8 m/s
same,Sciatic nerve conduction velocity,[1]; [12],63.6±1.8 m/s
same,G-ratio,[2]; 10 mg/kg i.p. once a day,0.619 ± 0.005
same,Thickness of myelin,[2]; 10 mg/kg i.p. once a day,1.42 ± 0.02 μm
same,G-ratio,[2]; [12],0.619±0.005
same,Thickness of myelin,[2]; [12],1.42±0.02 μm
same,MDA (oxidative stress),[3]; 10 mg/kg i.p. once a day,2.98 ± 0.39 nmol/mg protein
same,MDA (oxidative stress),[3]; [12],2.98±0.39 nmol/mg protein
same,IL-6,[4]; 10 mg/kg i.p. once a day,165.83 ± 10.21 pg/mg protein
same,IL-6,[4]; [12],165.83±10.21 pg/mg protein
same,Sciatic nerve blood flow,[5]; 10 mg/kg i.p. once a day,1336.1 ± 46.7 PU
same,Sciatic nerve blood flow,[5]; [12],1336.1±46.7 PU
same,BS (blood glucose level),"[6]; 10 mg/kg i.p. once a day, 0th week (before dosing), listed as edaravone",221.0 ± 7.3 mg/dL
same,BS (blood glucose level),[6]; [9],566.0 ± 32.6 mg/dL
same,BS (blood glucose level),"[6]; 10 mg/kg i.p. once a day, 1st week (before dosing), listed as edaravone",566.0 ± 32.6 mg/dL
same,BS (blood glucose level),[6]; [10],567.5 ± 28.0 mg/dL
same,BS (blood glucose level),"[6]; 10 mg/kg i.p. once a day, 2nd week, listed as edaravone",567.5 ± 28.0 mg/dL
same,BS (blood glucose level),"[6]; 10 mg/kg i.p. once a day, 3rd week",617.7 ± 373.3 mg/dL
same,BS (blood glucose level),"[6]; 10 mg/kg i.p. once a day, 3rd week, listed as edaravone",617.7 ± 37.3 mg/dL
same,BS (blood glucose level),[6]; [11],565.3 ± 35.1 mg/dL
same,BS (blood glucose level),"[6]; 10 mg/kg i.p. once a day, 4th week, listed as edaravone",565.3 ± 35.1 mg/dL
CC(C)=CCCC(C)=CCCC1(C)Oc2c(c(O)cc3c2CN(C(C(=O)O)c2ccc(O)cc2)C3=O)CC1O (centres unmarked) [SMTP-44D],Sciatic nerve conduction velocity,[1]; 0.3 mg/kg i.p. once a day,54.9±1.2 m/s
same,Sciatic nerve conduction velocity,[1]; 3 mg/kg i.p. once a day,56.9±2.8 m/s and 56.9 ± 28 m/s
same,Sciatic nerve conduction velocity,[1]; 30 mg/kg i.p. once a day,63.8±2.0 m/s
same,Thickness of myelin,[2]; 30 mg/kg i.p. once a day,1.58±0.02 μm
same,MDA (oxidative stress),[3]; 30 mg/kg i.p. once a day,1.98±0.51 nmol/mg protein
same,IL-6,[4]; 30 mg/kg i.p. once a day,143.41±8.08 pg/mg protein
same,Sciatic nerve blood flow,[5]; 0.3 mg/kg i.p. once a day,1116.9±30.4 PU
same,Sciatic nerve blood flow,[5]; 3 mg/kg i.p. once a day,1187.1±31.4 PU
same,Sciatic nerve blood flow,[5]; 30 mg/kg i.p. once a day,1461.0±55.0 PU
same,BS (blood glucose level),"[6]; 30 mg/kg i.p. once a day, 0th week (before dosing)",203.5 ± 5.5 mg/dL
same,BS (blood glucose level),"[6]; 30 mg/kg i.p. once a day, 1st week (before dosing)",535.5 ± 28.7 mg/dL
same,BS (blood glucose level),"[6]; 30 mg/kg i.p. once a day, 2nd week",597.3 ± 44.8 mg/dL
same,BS (blood glucose level),"[6]; 30 mg/kg i.p. once a day, 3rd week",638.7 ± 34.2 mg/dL
same,BS (blood glucose level),"[6]; 30 mg/kg i.p. once a day, 4th week",580.3 ± 42.9 mg/dL
